Reference: article PMC7751257 (mBio, 2020)
Where two headings read alike, the source gives them in different places. Bridge positions count the residues as written; N and C are the ends. Square brackets hold non-standard residues; d marks the D form. Peptide text beside a SMILES is read from it. S5 = C=CCCC[C@](C)(N)C(=O)O

What was measured:
[1] = system: pseudovirus NL4-3ΔEnv-NanoLuc/SARS-CoV-2; conditions: 24 h
[2] = system: pseudovirus NL4-3.Luc.R-E-/VSV-G; conditions: 48 h
[3] = system: pseudovirus NL4-3.Luc.R-E-/VSV-G; conditions: 24 h
[4] = α-Helical propensity by CD spectroscopy; assay type: physicochemical; conditions: 0.125 mg/ml peptide in 10 mM PBS, 25°C, 185 to 260 nm, calculated with CDNN software
[5] = system: SARS-CoV-2 (US_WA-1/2020); assay type: cell-based
[6] = system: pseudovirus NL4-3ΔEnv-NanoLuc/SARS-CoV-2; conditions: 48 h
[7] = Proteolytic stability in human plasma; conditions: pooled human plasma, pH 7.4, 2 μM, 37°C, time points 0, 10, 30, 60, 120 min, LC-MS/MS, duplicate
[8] = reported for the control stapled peptide; cited from earlier work

SMILES	IC50 [1]	IC50 [2]	IC50 [3]	% α-Helicity (185-260 nm) [4]	IC100 [5]	IC50 [6]	half-life (T1/2) in human plasma [7]	% helicity [8]
CC[C@H](C)[C@H](NC(=O)[C@@H](NC(C)=O)[C@@H](C)O)C(=O)N[C@@H](CCC(=O)O)C(=O)N[C@@H](CCC(=O)O)C(=O)N[C@@H](CCC(N)=O)C(=O)N[C@@H](C)C(=O)N[C@@H](CCCCN)C(=O)N[C@H](C(=O)N[C@@]1(C)CCC/C=C\CCC[C@@](C)(C(=O)N[C@@H](CC(N)=O)C(=O)N[C@@H](Cc2c[nH]cn2)C(=O)N[C@@H](CCC(=O)O)C(=O)N[C@@H](C)C(=O)N[C@@H](CCC(=O)O)C(=O)N[C@@H](CC(=O)O)C(=O)N[C@@H](CC(C)C)C(=O)N[C@@H](Cc2ccccc2)C(=O)N[C@@H](Cc2ccc(O)cc2)C(=O)N[C@@H](CCC(N)=O)C(=O)N[C@@]2(C)CCC/C=C\CCC[C@@](C)(C(=O)N[C@@H](Cc3c[nH]c4ccccc34)C(=O)N[C@@H](CC(N)=O)C(N)=O)NC(=O)[C@H](C)NC(=O)[C@H](CC(C)C)NC(=O)[C@H](CO)NC2=O)NC(=O)[C@H](CCCCN)NC(=O)[C@H](CC(=O)O)NC(=O)[C@H](CC(C)C)NC1=O)[C@@H](C)O [NYBSP-1] (Ac-TIEEQAKT[S5]LDK[S5]NHEAEDLFYQ[S5]SLA[S5]WN-NH2; staple (Z) 9-13, 24-28)	4.1 ± 0.26 µM	> 27.5 µM	> 27.5 µM	94%	17.2 µM	2.2 ± 0.14 µM		
CC(C)[N+](C)(CCOC(=O)C1c2ccccc2Oc2ccccc21)C(C)C [Propantheline bromide, propantheline bromide]							8 min	
CC(=O)N[C@@H](CC(=O)O)C(=O)N[C@@H](CC(N)=O)C(=O)N[C@@H](CCC(=O)O)C(=O)N[C@@]1(C)CCC/C=C\CCC[C@@](C)(C(=O)N[C@@H](Cc2ccc(O)cc2)C(=O)N[C@@H](Cc2c[nH]cn2)C(=O)N[C@@H](CC(C)C)C(=O)N[C@@]2(C)CCC/C=C\CCC[C@@](C)(C(=O)N[C@H](C(N)=O)C(C)C)NC(=O)[C@H](CC(N)=O)NC(=O)[C@H](Cc3ccccc3)NC(=O)[C@H](Cc3ccccc3)NC2=O)NC(=O)[C@H](Cc2ccccc2)NC(=O)[C@H](Cc2c[nH]c3ccccc23)NC(=O)[C@H](CCC(N)=O)NC1=O [StRIP16] (Ac-DNE[S5]QWF[S5]YHL[S5]FFN[S5]V-NH2; staple (Z) 4-8, 12-16)	> 43.5 µM	> 43.5 µM	> 43.5 µM			> 43.5 µM		38%
